Data from publication PMC9007292, “8‐Prenylnaringenin tissue distribution and pharmacokinetics in mice and its binding to human serum albumin and cellular uptake in human embryonic kidney cells” (Food Science & Nutrition, 2022).
Values joined by “and” are separate entries in the source; they are usually repeats but may differ in a detail not shown here. Equal values may be shown once.

Key:
site II of HSA = site II of HSA (Homo sapiens, UniProt P02768); assay: Fluorescence competitive binding assay with site‐selective probe BD140; settings: for Competitive inhibition rate of the probe binding, Site II: BD140 probe, 100 µM, n = 3, mean ± SE; for inhibition at 100 µM: human, defatted human serum albumin (HSA) in phosphate buffer, pH 7.4, probe BD140
Procedure: (§1) A fluorescent dye cocktail containing 0.33 mM BD140 and 1 mM DNSA was prepared in DMSO. Defatted HSA (A3782‐1G; Sigma‐Aldrich) was dissolved in phosphate buffer (pH 7.4) at a concentration of 0.67 mg/ml. Each flavonoid was dissolved in DMSO (stock solution) at 100 times the test concentration. Subsequently, 637 µl HSA solution, 6.5 µl fluorescent dye cocktail, and 6.5 µl flavonoid were mixed and divided into three wells on a 96‐well multi‐black plate. The final concentration of flavonoids was 1–100 μM. […] The HSA‐binding affinities of the flavonoids were evaluated by measuring the competitive inhibition rate of the probes binding to flavonoids according to Equation (1): (1) Flavonoidinhibitionpercentage(%)=F1‐F2/F1×100, where F 1 is the fluorescence intensity of DMSO and F 2 represents the fluorescence intensity of each flavonoid.

site I of HSA = site I of HSA (Homo sapiens, UniProt P02768); assay: Fluorescence competitive binding assay with site‐selective probe DNSA; settings: for Competitive inhibition rate of the probe binding, Site I / Inhibition ratio, site I: DNSA probe; for Competitive inhibition rate of the probe binding, Site I: 100 µM, n = 3, mean ± SE; for inhibition at 100 µM: human, defatted human serum albumin (HSA) in phosphate buffer, pH 7.4, probe dansylamide (DNSA)
Procedure: as §1

[1] = Tissue distribution after 22 days of 8‐PN or naringenin mixed diet; type: in vivo, C57/BL6 mice; settings: for Percentage of aglycone in the liver: aglycone to total; for 8‐PN aglycone in the liver: without deconjugation
Excerpt: We planned the nutritional composition and feeding period according to previous similar research (Andres-Lacueva et al., [2012]; Bieger et al., [2008]; Boer et al., [2005]; Mukai et al., [2013]; Takumi et al., [2011]). […] Though this dose concentration may not be achieved through regular diet or supplementation, this concentration was used in accordance with previous studies that evaluated the tissue distribution of flavonoids (0.2% [w/w]) (Mukai et al., [2013]; Takumi et al., [2011]). The mice were fed each diet via normal oral feeding for 22 days. In the pharmacokinetic study (Section 2.5), we administered each nutrient to mice at a dose of 50 mg/kg body weight (BW) via oral gavage after 18 h of starvation. Although this dose concentration may not reflect regular diet or supplementation, this or higher concentrations have been applied for pharmacokinetic study of flavonoids (Bai et al., [2020]; Hung et al., [2018]; Mukai et al., [2013]). All experimental protocols were approved by the Committee on Animal Experiments of Tokushima University (approval number: 11013). All efforts were made to minimize animal suffering. Seven-week-old male C57/BL6 mice (Japan SLC) were housed in a room maintained at 23 ± 1°C under a 12-h/12-h light/dark cycle. Diets consisted of 8-PN or naringenin (0.56 mmol/kg diet) mixed with AIN-93M (AIN-93M; Oriental Yeast Company), with the cellulose contents reduced to adjust the composition of other nutrients. The mice (n = 7 or 8) were fed these diets via normal oral feeding for 22 days and allowed free access to water. The liver, kidneys, quadricep muscles, pancreas, lungs, brain, spleen, and heart were collected from the mice under anesthesia and weighed. Before freezing, the liver tissues were flushed with ice-cold phosphate-buffered saline (PBS, pH 7.4) to avoid blood contamination. All samples were stored at -80°C under N2 gas until extraction of flavonoid. Sample preparation was performed according to a previous report (Mukai et al., [2013]). Each tissue was homogenized in PBS on ice (nine times the volume of the tissue wet weight) using a Teflon homogenizer (As One). […] The hydrolysates were then subjected to extraction three times with equal volumes of ethyl acetate and evaporated using a centrifugal evaporator (CVE-100; Tokyo Rikakikai). The extracts were dissolved in 50 μl of methanol containing 0.5% phosphoric acid. Then, 20 μl from each sample was injected into the HPLC-UV system. […] Shimadzu) with a Cadenza CD-C18 HPLC column (3 μm, 4.6 × 150 mm; […]). […] 8-PN and naringenin amounts were determined using an internal standard method. […] Since a clear peak was actually detected for 8-PN over 2 pmol (0.1 μM), and for naringenin over 4 pmol (0.2 μM) based on visual evaluation, we determined these concentrations were the LODs for each flavonoid.

[2] = parameters: method as in Rad et al., 2006; settings: postmenopausal women, mostly conjugated metabolites, ref Rad et al., 2006; cited from earlier work

Chain of site I of HSA (P02768 25-609): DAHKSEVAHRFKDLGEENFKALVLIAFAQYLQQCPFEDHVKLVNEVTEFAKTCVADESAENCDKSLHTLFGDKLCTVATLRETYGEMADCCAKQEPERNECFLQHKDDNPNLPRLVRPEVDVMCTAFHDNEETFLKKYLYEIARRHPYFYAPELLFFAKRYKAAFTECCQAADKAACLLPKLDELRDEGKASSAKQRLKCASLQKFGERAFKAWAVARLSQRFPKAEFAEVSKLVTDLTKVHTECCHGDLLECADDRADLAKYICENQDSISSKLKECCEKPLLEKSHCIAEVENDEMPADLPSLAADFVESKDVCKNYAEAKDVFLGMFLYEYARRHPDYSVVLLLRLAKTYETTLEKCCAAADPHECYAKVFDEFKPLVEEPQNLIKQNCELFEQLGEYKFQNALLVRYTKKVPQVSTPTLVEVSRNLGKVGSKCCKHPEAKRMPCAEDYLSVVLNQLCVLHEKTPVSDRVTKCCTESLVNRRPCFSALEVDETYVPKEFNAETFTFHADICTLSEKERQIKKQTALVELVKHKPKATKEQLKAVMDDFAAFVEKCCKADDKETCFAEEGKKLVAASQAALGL
Chain of site II of HSA (P02768 25-609): as above

| SMILES | Competitive inhibition rate of the probe binding, Site II (site II of HSA) | Competitive inhibition rate of the probe binding, Site I (site I of HSA) | Inhibition ratio, site I (site I of HSA; 1 µM) [%] | Inhibition ratio, site I (site I of HSA; 50 µM) [%] | inhibition at 100 µM (site II of HSA) [%] | inhibition at 100 µM (site I of HSA) [%] | further results |
| --- | --- | --- | --- | --- | --- | --- | --- |
| CC(C)=CCc1c(O)cc(O)c2c1OC(c1ccc(O[C@@H]3O[C@H](C(=O)O)[C@@H](O)[C@H](O)[C@H]3O)cc1)CC2=O (stereo partly shown) [8‐PN‐4′G, 8‐PN 4′‐glucuronide] | n.d. ^a (The result without competitive inhibition (≤0) with the fluorescent probe is shown as not determined (n.d.)) | n.d. ^a (The result without competitive inhibition (≤0) with the fluorescent probe is shown as not determined (n.d.)) | – | – | – | – | – |
| O=C1C[C@@H](c2ccc(O)cc2)Oc2cc(O[C@@H]3O[C@H](C(=O)O)[C@@H](O)[C@H](O)[C@H]3O)cc(O)c21 [N7G, naringenin 7‐glucuronide, reference compound] | 9.6 ± 4.8% | 10.0 ± 3.0% | – | – | – | – | – |
| CC(C)=CCc1c(O[C@@H]2O[C@H](C(=O)O)[C@@H](O)[C@H](O)[C@H]2O)cc(O)c2c1OC(c1ccc(O)cc1)CC2=O (stereo partly shown) [8‐PN‐7G, 8‐PN 7‐glucuronide] | n.d. ^a (The result without competitive inhibition (≤0) with the fluorescent probe is shown as not determined (n.d.)) | 37.2 ± 0.6 % | 12.8 | 37.9 | – | – | Binding constant to HSA (site I of HSA; from competition profile for site I (Figure 3)): 24200 M |
| O=C1C[C@@H](c2ccc(O)cc2)Oc2cc(O)cc(O)c21 [Naringenin] | – | – | – | – | 8.3 ± 3.9 | 25.3 ± 0.4 | – |
| O=C1C[C@@H](c2ccc(O[C@@H]3O[C@H](C(=O)O)[C@@H](O)[C@H](O)[C@H]3O)cc2)Oc2cc(O)cc(O)c21 [N4′G, Naringenin 4′‐glucuronide, reference compound] | 2.4 ± 2.4% | 5.2 ± 2.8% | – | – | – | – | – |
| CC(C)=CCc1c(O)cc(O)c2c1O[C@H](c1ccc(O)cc1)CC2=O [8‐PN, 8‐Prenylnaringenin] | – | – | 10.3 | 36.7 | 28.3 ± 2.8 | 61.1 ± 0.6 | Percentage of aglycone in the liver ([1]; average of 7 mice): 11.7%; 8‐PN aglycone in the liver ([1]; average of 7 mice): 1.58 nmol/g wet tissue; Percentage of aglycone in the liver ([1]; individual mice #1-7): 15.9% and 20.9% and 9.5% and 6.3% and 7.8% and 5.7% and 15.7%; 8‐PN aglycone in the liver ([1]; individual mice #1-7, 22 days diet): 0.62 nmol/g wet tissue and 3.23 nmol/g wet tissue and 1.62 nmol/g wet tissue and 1.50 nmol/g wet tissue and 0.66 nmol/g wet tissue and 1.18 nmol/g wet tissue and 2.24 nmol/g wet tissue; Time of absorption into the bloodstream after oral administration [2]: 1 to 1.5 h |
